Target: MAGL (Homo sapiens (Human), UniProt Q99685)
Experiment: In vitro competitive activity-based protein profiling (human prefrontal cortex membrane fractions, FP-Rh probe), MAGL band
Details: read-out: MAGL IC50 (μM) (human); human prefrontal cortex membrane fractions

Chain of MAGL (Q99685 whole entry): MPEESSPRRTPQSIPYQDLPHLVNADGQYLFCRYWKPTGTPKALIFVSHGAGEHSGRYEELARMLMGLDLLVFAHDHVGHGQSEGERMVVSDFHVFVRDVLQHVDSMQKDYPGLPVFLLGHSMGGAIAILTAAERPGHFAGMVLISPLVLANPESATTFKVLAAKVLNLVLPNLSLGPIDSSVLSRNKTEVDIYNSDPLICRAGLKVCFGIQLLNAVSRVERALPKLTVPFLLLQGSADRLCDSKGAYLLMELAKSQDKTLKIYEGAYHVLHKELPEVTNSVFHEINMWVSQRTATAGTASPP

SMILES	IC50 [µM]
Cc1c(CO[C@@H]2C[C@@H]3CN(C(=O)n4ccc(C(=O)O)n4)C[C@@H]3C2)cccc1C(F)(F)F [Example 289, 1-(cis-5-((2-methyl-3-(trifluoromethyl)-benzyl)oxy)-octahydrocyclopenta-[c]pyrrole-2-carbonyl)-1H-pyrazole-3-carboxylic acid]	< 0.1
O=C(O)c1ccn(C(=O)N2C[C@H]3C[C@H](Oc4ccc(-c5ccccc5)cc4)C[C@H]3C2)n1 [Example 240, 1-(trans-5-([1,1′-biphenyl]-4-yloxy)-octahydrocyclopenta-[c]pyrrole-2-carbonyl)-1H-pyrazole-3-carboxylic acid]	< 0.1
O=C(O)c1ccn(C(=O)N2CCN(Cc3cc(F)cc(Oc4cccc(Cl)c4)c3)CC2)n1 [Example 321, 1-(4-(3-(3-chlorophenoxy)-5-fluorobenzyl)-piperazine-1-carbonyl)-1H-pyrazole-3-carboxylic acid]	< 0.1
Cc1c(CO[C@H]2C[C@@H]3CN(C(=O)n4ccc(C(=O)O)n4)C[C@@H]3C2)cccc1C(F)(F)F [Example 159, 1-(trans-5-((2-methyl-3-(trifluoromethyl)-benzyl)oxy)-octahydrocyclo-penta-nl [c]pyrrole-2-carbonyl)-1H-pyrazole-3-carboxylic acid]	< 0.1
O=C(O)c1ccn(C(=O)N2CCC(Oc3cc(N4CCCC4)cc(C(F)(F)F)c3)CC2)n1 [Example 308, 1-(4-(3-(pyrrolidin-1-yl)-5-(trifluoromethyl)-phenoxy)-piperidine-1-carbonyl)-1H-pyrazole-3-carboxylic acid]	< 0.1
O=C(O)c1ccn(C(=O)N2C[C@H]3C[C@H](Oc4cccc(-c5ccccn5)c4)C[C@H]3C2)n1 [Example 242, 1-(trans-5-(3-(pyridin-2-yl)phenoxy)-octahydrocyclopenta-[c]pyrrole-2-carbonyl)-1H-pyrazole-3-carboxylic acid]	< 0.1
O=C(O)c1ccn(C(=O)N2C[C@H]3C[C@H](Oc4cccc(C5CC5)c4)C[C@H]3C2)n1 [Example 219, 1-(trans-5-(3-cyclopropyl-phenoxy)-octahydrocyclopenta-[c]pyrrole-2-carbonyl)-1H-pyrazole-3-carboxylic acid]	< 0.1
O=C(O)c1ccn(C(=O)N2CCN(Cc3cccc(Oc4ccc(C(F)(F)F)cn4)c3)CC2)n1 [Example 61, 1-(4-(3-((5-(trifluoromethyl)-pyridin-2-yl)oxy)benzyl)-piperazine-1-carbonyl)-1H-pyrazole-3-carboxylic acid]	< 0.1
O=C(O)c1ccn(C(=O)N2CCC(OCc3cc(N4CCCC4)cc(C(F)(F)F)c3)CC2)n1 [Example 331, 1-(4-((3-(pyrrolidin-1-yl)-5-(trifluoromethyl)-benzyl)-oxy)piperidine-1-carbonyl)-1H-pyrazole-3-carboxylic acid]	< 0.1
Cc1cn(C(=O)N2CCN(Cc3cc(F)cc(Oc4ccc(Cl)cc4)c3)CC2)nc1C(=O)O [Example 346, 1-(4-(3-(4-chlorophenoxy)-5-fluorobenzyl)-piperazine-1-carbonyl)-4-methyl-1H-pyrazole-3-carboxylic acid]	< 0.1
O=C(O)c1ccn(C(=O)N2CCC3(CCN(Cc4cc(Cl)ccc4C(F)(F)F)C3)CC2)n1 [Example 43, 1-(2-(5-chloro-2-(trifluoromethyl)-benzyl)-2,8-diazaspiro[4.5]-decane-8-carbonyl)-1H-pyrazole-3-carboxylic acid]	< 0.1
COc1cc(-c2ccccc2)ccc1CN1CCN(C(=O)n2ccc(C(=O)O)n2)[C@H](C)C1 [Example 283, (R)-1-(4-((3-methoxy-[1,1′-biphenyl]-4-yl)methyl)-2-methylpiperazine-1-carbonyl)-1H-pyrazole-3-carboxylic acid]	< 0.1
O=C(O)c1ccn(C(=O)N2CCC(OCc3cc(Cl)cc(C(F)(F)F)c3)CC2)n1 [Example 275, 1-(4-((3-chloro-5-(trifluoromethyl)-benzyl)oxy)-piperidine-1-carbonyl)-1H-pyrazole-3-carboxylic acid]	< 0.1
CC(C)(O)COc1cccc(CN2CCN(C(=O)n3ccc(C(=O)O)n3)CC2)c1Cl [Example 213, 1-(4-(2-chloro-3-(2-hydroxy-2-methylpropoxy)-benzyl)piperazine-1-carbonyl)-1H-pyrazole-3-carboxylic acid]	< 0.1
CN(Cc1cc(Cl)ccc1C(F)(F)F)C1CCN(C(=O)n2cc(Cl)c(C(=O)O)n2)CC1 [Example 112, 4-chloro-1-(4-((5-chloro-2-(trifluoromethyl)-benzyl)-(methyl)amino)-piperidine-1-carbonyl)-1H-pyrazole-3-carboxylic acid]	< 0.1
O=C(O)c1ccn(C(=O)N2CCN(Cc3ccc(C(F)(F)F)cc3N3CC4CCC(C3)O4)CC2)n1 [Example 380, 1-(4-(2-(8-oxa-3-azabicyclo[3.2.1]-octan-3-yl)-4-(trifluoromethyl)-benzyl)piperazine-1-carbonyl)-1H-pyrazole-3-carboxylic acid]	< 0.1

SMILES	IC50 [µM]
Cc1cn(C(=O)N2C[C@H]3C[C@H](OCc4cccc(C(F)(F)F)c4)C[C@H]3C2)nc1C(=O)O [Example 290, 4-methyl-1-(trans-5-((3-(trifluoromethyl)-benzyl)oxy)-octahydrocyclopenta-[c]pyrrole-2-carbonyl)-1H-pyrazole-3-carboxylic acid]	< 0.1
O=C(O)c1ccn(C(=O)N2CCC3(CCN(Cc4ccc(C(F)(F)F)cc4Cl)C3)CC2)n1 [Example 77, 1-(2-(2-chloro-4-(trifluoromethyl)-benzyl)-2,8-diazaspiro[4.5]-decane-8-carbonyl)-1H-pyrazole-3-carboxylic acid]	< 0.1
O=C(O)c1nn(C(=O)N2CCN(Cc3cccc(Oc4cc(C(F)(F)F)ccn4)c3)CC2)cc1Cl [Example 399, 4-chloro-1-(4-(3-((4-(trifluoromethyl)-pyridin-2-yl)oxy)benzyl)piperazine-1-carbonyl)-1H-pyrazole-3-carboxylic acid]	< 0.1
O=C(O)c1ccn(C(=O)N2C[C@H]3C[C@H](Oc4ccccc4-c4ccccc4)C[C@H]3C2)n1 [Example 239, 1-(trans-5-([1,1′-biphenyl]-2-yloxy)-octahydrocyclopenta-[c]pyrrole-2-carbonyl)-1H-pyrazole-3-carboxylic acid]	< 0.1
O=C(O)c1ccn(C(=O)N2CCN(Cc3cc(F)cc(Oc4ccccc4Cl)c3)CC2)n1 [Example 319, 1-(4-(3-(2-chlorophenoxy)-5-fluorobenzyl)-piperazine-1-carbonyl)-1H-pyrazole-3-carboxylic acid]	< 0.1
Cc1cn(C(=O)N2CCN(Cc3cccc(Oc4ccc(Cl)cc4)c3)C[C@@H]2C)nc1C(=O)O [Example 442, (S)-1-(4-(3-(4-chlorophenoxy)-benzyl)-2-methylpiperazine-1-carbonyl)-4-methyl-1H-pyrazole-3-carboxylic acid]	< 0.1
NC(=O)c1ccn(C(=O)N2CCC3(CCCN3Cc3cc4ccc(C(F)(F)F)cc4s3)CC2)n1 [Example 22, 1-(1-((6-(Trifluoromethyl)benzo[b]thiophen-2-yl)methyl)-1,8-diazaspiro[4.5]decane-8-carbonyl)-1H-pyrazole-3-carboxamide]	< 0.1
C[C@@H]1CN(Cc2ccc(C(F)(F)F)cc2N2CCCC2)CCN1C(=O)n1ccc(C(N)=O)n1 [Example 325, (R)-1-(2-methyl-4-(2-(pyrrolidin-1-yl)-4-(trifluoromethyl)-benzyl)piperazine-1-carbonyl)-1H-pyrazole-3-carboxamide]	< 0.1
O=C(O)c1nn(C(=O)N2C[C@H]3C[C@H](OCc4cc(F)cc(Cl)c4)C[C@H]3C2)cc1Cl [Example 296, 4-chloro-1-(trans-5-((3-chloro-5-fluorobenzyl)oxy)-octahydrocyclopenta-[c]pyrrole-2-carbonyl)-1H-pyrazole-3-carboxylic acid]	< 0.1
O=C(O)c1ccn(C(=O)N2CCN(Cc3cccc(Oc4cccc(Cl)c4)c3)CC2)n1 [Example 84, 1-(4-(3-(3-chlorophenoxy)-benzyl)-piperazine-1-carbonyl)-1H-pyrazole-3-carboxylic acid]	< 0.1
O=C(O)c1nn(C(=O)N2C[C@H]3C[C@H](Oc4cccc(-c5ccccc5)c4)C[C@H]3C2)cc1Cl [Example 304, 1-(trans-5-([1,1′-biphenyl]-3-yloxy)-octahydrocyclopenta-[c]pyrrole-2-carbonyl)-4-chloro-1H-pyrazole-3-carboxylic acid]	< 0.1
C[C@H]1CN(Cc2cccc(OCC(C)(C)O)c2Cl)CCN1C(=O)n1ccc(C(N)=O)n1 [Example 450, (S)-1-(4-(2-chloro-3-(2-hydroxy-2-methylpropoxy)-benzyl)-2-methylpiperazine-1-carbonyl)-1H-pyrazole-3-carboxamide]	< 0.1
CN(Cc1ccc(C(F)(F)F)c(N2CCCC2)c1)C1(C)CCN(C(=O)n2ccc(C(=O)O)n2)CC1 [Example 385, 1-(4-methyl-4-(methyl(3-(pyrrolidin-1-yl)-4-(trifluoromethyl)-benzyl)amino)-piperidine-1-carbonyl)-1H-pyrazole-3-carboxylic acid]	< 0.1
O=C(O)c1ccn(C(=O)N2CCN(Cc3ccc(Oc4ccc(Cl)cc4)cc3)CC2)n1 [Example 45, 1-(4-(4-(4-chlorophenoxy)-benzyl)piperazine-1-carbonyl)-1H-pyrazole-3-carboxylic acid]	< 0.1
O=C(O)c1ccn(C(=O)N2C[C@H]3C[C@H](OCc4ccc(Cl)c(-c5nccs5)c4)C[C@H]3C2)n1 [Example 345, 1-(trans-5-((4-chloro-3-(thiazol-2-yl)benzyl)oxy)-octahydrocyclopenta-[c]pyrrole-2-carbonyl)-1H-pyrazole-3-carboxylic acid]	< 0.1
NC(=O)c1ccn(C(=O)N2CC3CN(Cc4ccc(C5(C(=O)O)CCOCC5)cc4C(F)(F)F)CC3C2)n1 (centres unmarked) [Example 35, 4-(4-((5-(3-carbamoyl-1H-pyrazole-1-carbonyl)hexahydropyrrolo[3,4-c]pyrrol-2(1H)-yl)methyl)-3-(trifluoromethyl)phenyl)tetrahydro-2H-pyran-4-carboxylic acid]	< 0.1
